{"source": "paper PMC2826162", "about": "(Expert opinion on drug metabolism & toxicology, 2010)", "key": {"[1]": {"biological_target": "T1, C334ACYP101 (Pseudomonas putida, UniProt P00183, C335A)", "T1 sequence (P00183 whole entry C335A)": "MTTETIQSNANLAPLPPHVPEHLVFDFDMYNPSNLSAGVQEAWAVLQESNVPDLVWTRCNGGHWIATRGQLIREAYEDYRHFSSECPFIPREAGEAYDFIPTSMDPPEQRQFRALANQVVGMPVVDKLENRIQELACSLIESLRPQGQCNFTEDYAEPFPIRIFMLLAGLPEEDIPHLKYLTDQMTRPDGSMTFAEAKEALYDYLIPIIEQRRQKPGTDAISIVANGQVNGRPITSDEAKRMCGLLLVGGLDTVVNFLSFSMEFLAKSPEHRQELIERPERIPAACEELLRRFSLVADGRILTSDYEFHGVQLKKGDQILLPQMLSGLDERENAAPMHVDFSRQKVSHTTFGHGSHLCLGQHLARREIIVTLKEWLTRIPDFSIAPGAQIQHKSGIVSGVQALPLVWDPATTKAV", "assay": "biochemical", "format": "binding"}, "[2]": {"biological_target": "T1, C334ACYP101", "assay": "biochemical", "format": "binding", "remark": "listed apart in the source"}, "[3]": {"biological_target": "T1, C334ACYP101", "format": "binding", "conditions": "for K4 apparent equilibrium constant: product (P) binding to ES; for K4 apparent equilibrium constant / K2 apparent equilibrium constant: pH 7.4, 24°C; for K2 apparent equilibrium constant: product binding to E; for K1K4: product of constants, ESP formed via ES"}, "[4]": {"tested_on": "CYP101"}, "[5]": {"biological_target": "T2, CYP2B4 (Oryctolagus cuniculus, UniProt P00178)", "T2 sequence (P00178 whole entry)": "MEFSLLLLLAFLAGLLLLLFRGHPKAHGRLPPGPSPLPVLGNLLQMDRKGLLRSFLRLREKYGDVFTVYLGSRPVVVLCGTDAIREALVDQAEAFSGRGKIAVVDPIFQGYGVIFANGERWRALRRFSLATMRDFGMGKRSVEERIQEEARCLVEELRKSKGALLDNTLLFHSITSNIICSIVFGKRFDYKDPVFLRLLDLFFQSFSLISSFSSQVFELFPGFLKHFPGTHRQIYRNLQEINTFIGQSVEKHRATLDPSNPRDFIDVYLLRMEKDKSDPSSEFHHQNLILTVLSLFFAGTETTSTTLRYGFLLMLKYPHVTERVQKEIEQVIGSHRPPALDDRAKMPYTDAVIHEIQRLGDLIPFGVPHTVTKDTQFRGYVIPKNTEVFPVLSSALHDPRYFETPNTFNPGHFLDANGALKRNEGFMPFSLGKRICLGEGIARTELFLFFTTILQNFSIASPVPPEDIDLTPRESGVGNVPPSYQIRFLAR", "conditions": "cited from earlier work"}, "[6]": {"biological_target": "T2, CYP2B4", "conditions": "pH 7.4"}, "[7]": {"tested_on": "CYP2B4", "conditions": "cited from earlier work"}, "[8]": {"biological_target": "T2, CYP2B4"}, "[9]": {"tested_on": "CYP2C9", "conditions": "cited from earlier work"}, "[10]": {"tested_on": "CYP2C9", "conditions": "cited from earlier work", "remark": "listed apart in the source"}, "[11]": {"tested_on": "CYP3A4", "conditions": "cited from earlier work"}, "[12]": {"tested_on": "CYPC21 (steroid C-21 hydroxylase of bovine adrenocortical microsomes)", "conditions": "low spin to five coordinated high spin; cited from earlier work"}, "[13]": {"tested_on": "CYP73As", "conditions": "cinnamate hydroxylation; cited from earlier work"}}, "note": "Like-named read-outs stand apart in the source and are kept apart here.", "data": [{"compound": "O=C1C2CC3CC(C2)CC1C3", "note": "[2 Adone, 2-Adamantanone]", "values": [{"measurement": "Kd", "setting": "[1]", "value": "2.9 ± 0.2", "unit": "µM"}, {"measurement": "Kd", "setting": "[2]; KD^APP Transient, C334ACYP101, 10-13°C jump, 0.05 M K-PO4 buffer + 0.1 M KCl", "value": "6 ± 2", "unit": "µM"}]}, {"compound": "CC1(C)[C@H]2CC(=O)[C@]1(C)C[C@H]2O", "note": "[5exo OH Camphor, 5-exo-OH camphor]", "values": [{"measurement": "K4 apparent equilibrium constant", "setting": "[3]; OHcam 38 uM", "value": ".012 ± .001 µM⁻¹"}, {"measurement": "K2 apparent equilibrium constant", "setting": "[3]; OHcam 38 uM", "value": ".039 ± .002 µM⁻¹"}, {"measurement": "K1K4", "setting": "[3]; OHcam 38 uM", "value": ".0080"}, {"measurement": "K4 apparent equilibrium constant", "setting": "[3]; OHcam 66 uM", "value": ".0078 ± .0005 µM⁻¹"}, {"measurement": "K2 apparent equilibrium constant", "setting": "[3]; OHcam 66 uM", "value": ".030 ± .004 µM⁻¹"}, {"measurement": "K1K4", "setting": "[3]; OHcam 66 uM", "value": ".0049"}, {"measurement": "K4 apparent equilibrium constant", "setting": "[3]; OHcam 100 uM", "value": ".0063 ± .0004 µM⁻¹"}, {"measurement": "K2 apparent equilibrium constant", "setting": "[3]; OHcam 100 uM", "value": ".034 ± .002 µM⁻¹"}, {"measurement": "K1K4", "setting": "[3]; OHcam 100 uM", "value": ".0043"}, {"measurement": "K4 apparent equilibrium constant", "setting": "[3]; OHcam 133 uM", "value": ".0039 ± .0003 µM⁻¹"}, {"measurement": "K2 apparent equilibrium constant", "setting": "[3]; OHcam 133 uM", "value": ".034 ± .002 µM⁻¹"}, {"measurement": "K1K4", "setting": "[3]; OHcam 133 uM", "value": ".0024"}]}, {"compound": "CC12CCC(CC1=O)C2(C)C", "note": "(stereo not drawn) [Cam, Camphor]", "values": [{"measurement": "Kd", "setting": "[1]", "value": "4.8 ± 0.8", "unit": "µM"}, {"measurement": "peak to trough ratio of Type I difference spectrum", "setting": "[4]", "value": "~0.87"}, {"measurement": "Kd", "setting": "[2]; KD^APP Kinetic", "value": "6.2 ± 0.9", "unit": "µM"}, {"measurement": "Kd", "setting": "[2]; KD^APP Transient", "value": "5 ± 0.5", "unit": "µM"}]}, {"compound": "C[C@H](Cc1ccccc1)NCc1ccccc1", "note": "[DesBNZ, desmethylbenzphetamine]", "values": [{"measurement": "time of Site II re-ligation to form the final Type II complex (slow phase)", "setting": "[5]", "value": "≤ 20", "unit": "milliseconds"}, {"measurement": "Kd", "setting": "[6]", "value": "701 ± 150", "unit": "µM"}, {"measurement": "strength of hetero atom binding to Site II (L6)", "setting": "[7]", "value": "as strongly as water"}, {"measurement": "binding of product formed in situ", "setting": "[8]", "value": "remains bound"}]}, {"compound": "CC(C(=O)O)c1ccc(-c2ccccc2)c(F)c1", "note": "(stereo not drawn) [Flurbiprofen, flurbiprofen]", "values": [{"measurement": "Type I spectral change in the CYP2C9", "setting": "[9]", "value": "elicits"}]}, {"compound": "Nc1ccc(S(=O)(=O)c2ccc(NO)cc2)cc1", "note": "[N-hydroxydapsone]", "values": [{"measurement": "effect on coupling efficiency of flurbiprofen hydroxylation", "setting": "[10]", "value": "enhanced"}, {"measurement": "effect on flurbiprofen hydroxylation", "setting": "[10]", "value": "stimulating"}]}, {"compound": "COc1cc2c(c3oc(=O)c4c(c13)CCC4=O)[C@@H]1C=CO[C@@H]1O2", "note": "[aflatoxin B1]", "values": [{"measurement": "effect on metabolism of α-NF by CYP3A4", "setting": "[11]", "value": "has no effect"}]}, {"compound": "C[C@]12CCC(=O)C=C1CC[C@@H]1[C@@H]2CC[C@]2(C)C(=O)CC[C@@H]12", "note": "[androstenedione]", "values": [{"measurement": "Type I spectral change", "setting": "[12]", "value": "elicited"}]}, {"compound": "O=C(O)/C=C/c1ccc(O)cc1", "note": "[coumerate]", "values": [{"measurement": "product inhibition of substrate hydroxylation", "setting": "[13]", "value": "not observable"}]}, {"compound": "Nc1ccc(S(=O)(=O)c2ccc(N)cc2)cc1", "note": "[dapsone]", "values": [{"measurement": "Type I spectral change in the CYP2C9", "setting": "[9]; static spectroscopy", "value": "does not elicit"}, {"measurement": "effect on coupling efficiency of flurbiprofen hydroxylation", "setting": "[10]", "value": "enhanced"}, {"measurement": "effect on flurbiprofen hydroxylation", "setting": "[10]", "value": "stimulating"}]}, {"compound": "C[C@]12CC[C@H]3[C@@H](CCC4=CC(=O)CC[C@@]43C)[C@@H]1CC[C@@H]2O", "note": "[testosterone]", "values": [{"measurement": "effect on metabolism of midazolum by CYP3A4", "setting": "[11]", "value": "inhibits"}]}, {"compound": "O=c1cc(-c2ccccc2)oc2c1ccc1ccccc12", "note": "[α-NF, α-naphthoflavone]", "values": [{"measurement": "effect on metabolism of aflatoxin B1 by CYP3A4", "setting": "[11]", "value": "activates"}]}]}
